Reference: the NIST ThermoML archive (doi:10.1021/je900789j)

Settings: 101.33 kPa, Liquid; for electrical conductivity: Alternating current cell with electrodes; for mass density: Vibrating tube method

CCCCn1cc[n+](C)c1.F[B-](F)(F)F [1-butyl-3-methylimidazolium tetrafluoroborate]
Settings	electrical conductivity [S/m]	mass density [kg/m3]
238.05 K	0.00212	–
248.05 K	0.00778	–
258.05 K	0.0225	–
268.1 K	0.0542	–
278.1 K	0.1132	1215.43
288.15 K	0.211	1209.33
298.15 K	0.352	1202.08
308.15 K	0.556	1194.78
318.15 K	0.821	1187.79
328.15 K	1.15	1180.62
338.15 K	1.545	1173.51
348.15 K	2	–
358.15 K	2.52	–
368.15 K	3.1	–
378.15 K	3.73	–
388.15 K	4.41	–
398.15 K	5.13	–
408.15 K	5.88	–
418.15 K	6.64	–
428.15 K	7.45	–
438.15 K	8.29	–
448.15 K	9.15	–
458.15 K	10.04	–
468.15 K	10.9	–

CCn1cc[n+](C)c1.F[B-](F)(F)F [1-ethyl-3-methylimidazolium tetrafluoroborate]
Settings	electrical conductivity [S/m]	mass density [kg/m3]
248.05 K	0.106	–
258.05 K	0.228	–
268.1 K	0.423	–
278.1 K	0.703	1293.75
288.15 K	1.08	1288.03
298.15 K	1.546	1280.07
308.15 K	2.11	1272.48
318.15 K	2.77	1265.12
328.15 K	3.51	1256.89
338.15 K	4.34	1250.24
348.15 K	5.23	–
358.15 K	6.2	–
368.15 K	7.22	–
378.15 K	8.29	–
388.15 K	9.41	–
398.15 K	10.6	–
408.15 K	11.8	–
418.15 K	13	–
428.15 K	14.22	–
438.15 K	15.48	–
448.15 K	16.8	–
458.15 K	18.03	–
468.15 K	19.3	–

CCCCCCn1cc[n+](C)c1.F[B-](F)(F)F [1-hexyl-3-methylimidazolium tetrafluoroborate]
Settings	electrical conductivity [S/m]	mass density [kg/m3]
238.05 K	0.000405	–
248.05 K	0.00169	–
258.05 K	0.00544	–
268.1 K	0.0145	–
278.1 K	0.0332	1159.81
288.15 K	0.0672	1153.14
298.15 K	0.1229	1146.18
308.15 K	0.207	1139.15
318.15 K	0.326	1132.31
328.15 K	0.483	1125.18
338.15 K	0.683	1118.54
348.15 K	0.926	–
358.15 K	1.214	–
368.15 K	1.545	–
378.15 K	1.92	–
388.15 K	2.33	–
398.15 K	2.78	–
408.15 K	3.26	–
418.15 K	3.77	–
428.15 K	4.31	–
438.15 K	4.88	–
448.15 K	5.46	–
458.15 K	6.07	–
468.15 K	6.69	–

CCCCCCCC[n+]1ccn(C)c1.F[B-](F)(F)F [1-methyl-3-octylimidazolium tetrafluoroborate]
Settings	electrical conductivity [S/m]	mass density [kg/m3]
238.05 K	0.0001524	–
248.05 K	0.00065	–
258.05 K	0.00218	–
268.1 K	0.00605	–
278.1 K	0.01441	1116.79
288.15 K	0.0304	1110.36
298.15 K	0.0579	1103.6
308.15 K	0.1012	1096.82
318.15 K	0.1647	1090.04
328.15 K	0.252	1083.22
338.15 K	0.368	1076.46
348.15 K	0.512	–
358.15 K	0.688	–
368.15 K	0.895	–
378.15 K	1.134	–
388.15 K	1.403	–
398.15 K	1.701	–
408.15 K	2.03	–
418.15 K	2.38	–
428.15 K	2.75	–
438.15 K	3.15	–
448.15 K	3.56	–
458.15 K	3.99	–
468.15 K	4.44	–
